Measured values as given in article PMC7692337, “Masked Phenolic-Selenium Conjugates: Potent and Selective Antiproliferative Agents Overcoming P-gp Resistance” (Pharmaceuticals, 2020).
Read-outs that look alike come from different tables or passages of the source.

Key:
[1] = test system: six human tumour cell lines (A549, HBL-100, HeLa, SW1573, T-47D, WiDr); test: Antiproliferative activity, panel of six human tumour cell lines; assay type: cell-based
Protocol: (§1) Organochalcogen derivatives prepared herein were evaluated in vitro as potential antiproliferative agents, using a panel of six human tumour cell lines: A549 (non-small cell lung), HBL-100 (breast), HeLa (cervix), SW1573 (non-small cell lung), as drug sensitive lines, T-47D (breast) and WiDr (colon) as drug resistant lines. In addition to precursors 2, 6, 7, 13, 14, 17, 19, ebselen and cisplatin (CDDP) were used as reference drugs. […] In both cases, the NCI protocol, with minor modifications, was followed; selected data, including the selectivity index (S.I.) can be found in Table 3 and full data in Supporting Information (Table S1).
(§2) The in vitro antiproliferative activity was assayed using minor modifications of the protocol of the National Cancer Institute (NCI) of the United States against the six human solid tumor cell and the non-tumor cell lines tested.

HBL-100 (breast) = test: Antiproliferative activity, NCI protocol; assay type: cell-based, human
Protocol: as §1, §2

[2] = test system: A549 (non-small cell lung); test: Antiproliferative activity, NCI protocol; assay type: cell-based, human
Protocol: as §1, §2

HeLa (cervix) = test: Antiproliferative activity, NCI protocol; assay type: cell-based, human
Protocol: as §1, §2

[3] = test system: SW1573 (non-small cell lung); test: Antiproliferative activity, NCI protocol; assay type: cell-based, human; conditions: Homo sapiens
Protocol: as §1, §2

T-47D (breast) = test: Antiproliferative activity, NCI protocol; assay type: cell-based, human; conditions: Homo sapiens, T47D, read-out: GI50 T-47D (Breast)
Protocol: as §1, §2

WiDr (colon) = test: Antiproliferative activity, NCI protocol; assay type: cell-based, human; conditions: Homo sapiens, WiDr, read-out: GI50 WiDr (Colon)
Protocol: as §1, §2

BJ-hTert (fibroblasts) = test: Antiproliferative activity on non-tumour cells, NCI protocol; assay type: cell-based, human; conditions: Homo sapiens, Fibroblast, read-out: GI50 BJ-hTert (Fibroblasts)
Protocol: as §1, §2

[4] = Free radical scavenging (DPPH method); conditions: 30 min incubation, absorbance at 515 nm; for EC50: read-out: EC50 antiradical activity (DPPH)
Protocol: (§3) In vitro antioxidant properties of key unprotected phenolic derivatives were analyzed using two different methodologies: free radical scavenging capacity, using the DPPH method (2,2-diphenyl-1-picrylhydrazyl), a HAT (hydrogen atom transfer) procedure, widely-used for both natural and synthetic derivatives, and also the capacity for scavenging H2O2, one of the most common ROS in degenerative diseases, including cancer.
DPPH is a commercially-available stable free radical commonly used for in vitro testing of radical scavenging properties of antioxidants.
Reported methodology was used with minor modifications. To a 60 µM methanolic DPPH solution (1.17 mL), the antioxidant solution (5–7 different solutions, 30 µL) or solvent (control, 30 µL) were added. After 30 min. of incubation in the dark, absorbance was measured at 515 nm, and EC50 values were calculated.

[5] = H2O2 scavenging (phenol red / horseradish peroxidase); conditions: At 50 µM
Protocol: as §3
Herein, following Bahorun’s methodology, in vitro levels of H2O2 were measured in an indirect fashion, by registering the H2O2-mediated oxidation of phenol red in the presence of horseradish peroxidase, to give a chromophore with a maximum absorption at 610 nm. Accordingly, in the presence of an antioxidant agent, there is an inverse correlation between the observed absorbance, and the scavenging properties. Table 2 depicts the H2O2-scavenging properties of compounds prepared herein, and tested at a final 50 µM concentration.
Reported methodology was used with minor modifications.

[6] = P-glycoprotein assay, line overexpressing P-gp; assay type: cell-based, human; conditions: human, 48 h exposure
Protocol: (§4) This assay allows prediction of whether a certain chemotherapeutic agent could develop chemoresistance when behaving as a P-gp substrate, one of the most common efllux-pumps used for the extrusion of cell xenobiotics. For that purpose, a cell line-based assay was used, in particular the lung cancer cell line in its wild type (SW1573), and its variant overexpressing P-gp (Sw1573/Pgp). Moreover, compounds were tested in the presence and in the absence of verapamil, which is known to inhibit P-gp. Chemotherapeutic agents paclitaxel (PTX) and vinblastine (VB) are used herein as reference compounds. In this assay, the resistance factor (Rf) for a certain compound is defined as the ratio of GI50 in the cell line overexpressing P-gp and the wild one (Table 4), high values of Rf denoting that the compound behaves as a P-gp substrate, and thus, chemoresistance through this mechanism will probably take place.

SW1573/Pgp = test: P-glycoprotein assay, line overexpressing P-gp; assay type: cell-based, human; conditions: ratio between GI50 values in SW1573/PGP and SW1573 cells
Protocol: as §4

SW1573 = test: P-glycoprotein assay, wild type line; assay type: cell-based; conditions: Homo sapiens, 48 h exposure
Protocol: as §4

SMILES: O=C(CCC[Se][Se]CCCC(=O)NCCc1ccc2c(c1)OCO2)NCCc1ccc2c(c1)OCO2 [Compound 46, 4,4’-Diselenobis{N-[2′’-(3′’’,4′’’-Methylenedioxyphenyl)ethyl]butanamide}]
- fold improvement of potency against tumour cell lines compared to 16 ([1]; 46 (acetal) versus 16 (free catechol)): up to 30 fold
- GI50 ([1]; Homo sapiens, read-out: GI50 over the tumour cell lines (range, bound or words)): 120 to 300 nM
- fold increase in activity compared to CDDP ([1]; multidrug resistant cell lines (T-47D, WiDr)): ≤ 104 fold
- GI50 (HBL-100 (breast); Homo sapiens, HBL-100, read-out: GI50 HBL-100 (Breast)): 250 ± 20 nM
- GI50 ([2]; Homo sapiens, A549, read-out: GI50 A549 (Lung)): 270 ± 20 nM
- GI50 (HeLa (cervix); Homo sapiens, HeLa, read-out: GI50 HeLa (Cervix)): 120 ± 10 nM
- GI50 ([3]; SW1573, read-out: GI50 SW1573 (Lung)): 300 ± 30 nM
- GI50 (T-47D (breast)): 190 ± 40 nM
- GI50 (WiDr (colon)): 250 ± 60 nM
- GI50 (BJ-hTert (fibroblasts)): 1000 ± 100 nM
- EC50 antiradical activity (DPPH) [4]: complete impairment of activity
- EC50 [4]: > 250000 nM
- % Scavenging of H2O2 [5]: complete loss of ROS scavenging properties and ---

SMILES: c1cc2c(cc1C[Se][Se]Cc1ccc3c(c1)OCO3)OCO2 [Compound 39, Bis[(3’, 4’-methylenedioxyphenyl)methyl]diselenide]
- GI50 over the tumour cell lines (range, bound or words) ([1]; summary over the tested tumour cell lines, highest tested concentration 100 µM): low micromolar‒submicromolar activities
- GI50 at 48 h ([6]; with verapamil (concentration not stated), with verapamil, read-out: GI50 SW1573/PGP w Verapamil): 5100 ± 400 nM
- GI50 at 48 h ([6]; without verapamil, read-out: GI50 SW1573/PGP w/o Verapamil): 18000 ± 100 nM
- Rf w Verapamil (SW1573/Pgp; with verapamil): 2.0
- Rf w/o Verapamil (SW1573/Pgp; without verapamil): 6.0
- GI50 (HBL-100 (breast); Homo sapiens, HBL-100; read-out: GI50 HBL-100 (Breast)): 2900 ± 600 nM
- GI50 ([2]; Homo sapiens, A549; read-out: GI50 A549 (Lung)): 1200 ± 300 nM
- GI50 (HeLa (cervix); Homo sapiens, HeLa; read-out: GI50 HeLa (Cervix)): 2400 ± 1400 nM
- GI50 ([3]; SW1573, Table S1, read-out: GI50 SW1573 (Lung)): 3200 ± 900 nM
- GI50 (T-47D (breast); drug resistant line): 2900 ± 400 nM
- GI50 (WiDr (colon); drug resistant line): 1600 ± 300 nM
- GI50 (BJ-hTert (fibroblasts); non-tumour cell line): 3900 ± 1000 nM
- GI50 (SW1573; with verapamil, read-out: GI50 SW153 w Verapamil): 2500 ± 100 nM
- GI50 (SW1573; without verapamil, read-out: GI50 SW1573 w/o Verapamil): 3000 ± 500 nM
- EC50 antiradical activity (DPPH) [4]: complete impairment of activity
- EC50 [4]: > 250000 nM
- % Scavenging of H2O2 [5]: complete loss of ROS scavenging properties and ---
